Test results: patent US6643591B1, “Use of computational and experimental data to model organic compound reactivity in cytochrome P450 mediated reactions and to optimize the design of pharmaceuticals” (University of Pittsburgh, priority 1998, dated 2003)

How the values were obtained:
CYP2E1 = CYP2E1 (Homo sapiens, UniProt P05181); assay: Regioselectivity and inter-/intramolecular KIE for 4-methylanisole (Table 15); format: in vitro ADME
CYP3A4 = CYP3A4 (Homo sapiens, UniProt P08684); assay: as above; format: in vitro ADME
CYP2B6 [1] = biological target: T1, CYP2B6 (Homo sapiens, UniProt P20813); assay: as above; format: in vitro ADME
T1 sequence (P20813 1-491): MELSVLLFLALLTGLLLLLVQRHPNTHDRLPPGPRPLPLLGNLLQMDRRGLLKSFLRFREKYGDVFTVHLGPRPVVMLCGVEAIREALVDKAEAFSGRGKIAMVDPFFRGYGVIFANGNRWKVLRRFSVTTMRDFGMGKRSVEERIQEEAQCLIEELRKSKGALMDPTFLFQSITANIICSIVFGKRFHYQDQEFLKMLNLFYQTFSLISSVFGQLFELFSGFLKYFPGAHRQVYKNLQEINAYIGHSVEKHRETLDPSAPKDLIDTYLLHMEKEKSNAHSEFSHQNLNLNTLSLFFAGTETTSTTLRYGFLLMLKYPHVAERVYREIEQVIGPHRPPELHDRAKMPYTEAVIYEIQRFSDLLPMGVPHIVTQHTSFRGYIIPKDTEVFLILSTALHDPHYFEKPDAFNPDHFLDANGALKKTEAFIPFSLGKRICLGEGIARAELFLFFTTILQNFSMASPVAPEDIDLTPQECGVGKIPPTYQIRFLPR

P450cam = biological target: T2, P450cam (Pseudomonas putida, UniProt P00183); assay: Intramolecular isotope effects with purified P450cam; format: in vitro ADME, bacterial; settings: benzylic hydroxylation, -CH2D (d1) substrate
T2 construct: made in house
Protocol: For the intramolecular isotope effect experiments herein, a substrate is chosen that contains at least two symmetrical sites, with at least one site, but not all, isotopically labeled. A single concentration of substrate is incubated with enzyme, and the ratio of labeled to unlabeled compound in the isotopic mixture of products (or the corresponding rates of formation of products) are used to calculate a KIE.
Construction of expression plasmids for P450cam, Pd, and PdR as well as protein expression and purification have been described previously (Shimoji et al. (1998) Biochemistry 37, 8848-52).
Enzyme incubations with monodeuterated toluenes and p-xylene-α-^2H1-α′-^2H1 were performed in triplicate at a single substrate concentration of 0.25 mM. […] The kinetic parameters for metabolism of the substituted toluenes were determined by GC-MS analysis of the M-(dimethylsilyl) derivative of the product benzyl alcohols (see below).

CYP = assay: Experimental product ratios for aromatic oxidation; settings: Arom/benz
Text: These equations may be solved with the data in Table 4, which provides experimental data for aromatic oxidation reactions with a number of substrates.
Experimental metabolite ratios may also be used to parameterize the aromatic oxidation reaction in a theoretical model for CYP reactions. As with hydrogen atom abstraction discussed in the previous Examples, experimental ratios of aromatic oxidation to an alternate position may be determined using various CYP enzymes. These substrates were chosen based on their small size, the presence of an alternate position for metabolism, and their hydrophobicity.
In order for the substrates to be useful, the average of the rotation rates in the active sites should be rapid. […] Several human expressed CYP enzymes were used in these studies, including CYP1A1, 1A2, 2A6, 2B6, 2C8, 2C9, 2D6, 2E1, 3A4, and 3A5. The use of multiple enzymes insures that a reasonable average of any orientation preferences within the active site (see FIG. 1).

CYP1A2, CYP2B1, CYP2E1 = assay: in vitro; settings: pH 7.4, Regioselectivity BzH:Arom, range, isoforms 1A2, 2B1 and 2E1
multiple CYP isoforms = assay: in vitro; settings: pH 7.4, Regioselectivity BzH:ODAlk, range, range over the isoforms
CYP2B6, CYP2C9, CYP4B1 = assay: in vitro; settings: pH 7.4, Regioselectivity BzH:Arom, range, isoforms 2B6, 2C9 and 4B1
CYP2B6 [2] = biological target: T1, CYP2B6; assay: in vitro
CYP4B1 = CYP4B1 (Oryctolagus cuniculus, UniProt P15128); assay: in vitro
CYP1A2 = biological target: T3, CYP1A2 (Homo sapiens, UniProt P05177); assay: in vitro
T3 sequence (P05177 1-516): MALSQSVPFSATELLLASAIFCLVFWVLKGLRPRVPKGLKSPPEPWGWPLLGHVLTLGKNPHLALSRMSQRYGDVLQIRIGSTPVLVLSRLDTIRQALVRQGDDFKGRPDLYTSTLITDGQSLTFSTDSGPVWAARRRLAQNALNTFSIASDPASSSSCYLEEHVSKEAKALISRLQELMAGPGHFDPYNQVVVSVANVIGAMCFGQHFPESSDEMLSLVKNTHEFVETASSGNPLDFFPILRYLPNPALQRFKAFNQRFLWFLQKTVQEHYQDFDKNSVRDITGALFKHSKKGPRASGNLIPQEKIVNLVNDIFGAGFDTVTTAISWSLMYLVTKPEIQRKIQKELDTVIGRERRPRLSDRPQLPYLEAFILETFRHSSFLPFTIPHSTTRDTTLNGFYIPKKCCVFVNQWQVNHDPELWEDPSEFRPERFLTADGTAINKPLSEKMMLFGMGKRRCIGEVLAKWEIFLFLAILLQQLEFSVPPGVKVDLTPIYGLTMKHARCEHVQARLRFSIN

[3] = pH 7.4, Regioselectivity BzH:Arom
[4] = pH 7.4, Regioselectivity BzH:ODAlk

Sequence of CYP2E1 (P05181 whole entry): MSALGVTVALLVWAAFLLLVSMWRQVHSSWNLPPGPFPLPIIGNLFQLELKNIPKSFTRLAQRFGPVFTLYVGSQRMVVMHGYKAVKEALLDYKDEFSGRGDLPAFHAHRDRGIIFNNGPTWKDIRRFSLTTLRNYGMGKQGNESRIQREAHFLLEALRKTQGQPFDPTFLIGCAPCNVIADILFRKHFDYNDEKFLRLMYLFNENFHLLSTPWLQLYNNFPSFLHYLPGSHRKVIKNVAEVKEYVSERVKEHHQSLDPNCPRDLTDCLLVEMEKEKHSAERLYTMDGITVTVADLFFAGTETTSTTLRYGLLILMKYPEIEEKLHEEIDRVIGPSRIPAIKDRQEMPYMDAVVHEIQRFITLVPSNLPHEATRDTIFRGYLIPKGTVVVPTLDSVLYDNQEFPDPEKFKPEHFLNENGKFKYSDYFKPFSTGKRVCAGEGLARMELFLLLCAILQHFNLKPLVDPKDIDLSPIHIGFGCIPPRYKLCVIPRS
Sequence of CYP3A4 (P08684 whole entry): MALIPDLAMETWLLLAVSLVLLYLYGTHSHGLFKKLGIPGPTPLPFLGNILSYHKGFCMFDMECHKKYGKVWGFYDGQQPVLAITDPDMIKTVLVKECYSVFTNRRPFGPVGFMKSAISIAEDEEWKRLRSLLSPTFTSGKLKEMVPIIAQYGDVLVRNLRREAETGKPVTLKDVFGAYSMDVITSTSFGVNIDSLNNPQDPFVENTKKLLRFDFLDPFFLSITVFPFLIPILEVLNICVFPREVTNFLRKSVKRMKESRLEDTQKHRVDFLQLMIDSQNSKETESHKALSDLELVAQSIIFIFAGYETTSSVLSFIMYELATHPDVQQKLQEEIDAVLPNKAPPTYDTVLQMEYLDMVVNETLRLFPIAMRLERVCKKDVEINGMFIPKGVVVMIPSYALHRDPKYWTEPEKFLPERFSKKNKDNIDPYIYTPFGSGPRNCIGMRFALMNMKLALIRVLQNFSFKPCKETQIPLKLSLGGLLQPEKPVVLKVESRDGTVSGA
Sequence of CYP4B1 (P15128 whole entry): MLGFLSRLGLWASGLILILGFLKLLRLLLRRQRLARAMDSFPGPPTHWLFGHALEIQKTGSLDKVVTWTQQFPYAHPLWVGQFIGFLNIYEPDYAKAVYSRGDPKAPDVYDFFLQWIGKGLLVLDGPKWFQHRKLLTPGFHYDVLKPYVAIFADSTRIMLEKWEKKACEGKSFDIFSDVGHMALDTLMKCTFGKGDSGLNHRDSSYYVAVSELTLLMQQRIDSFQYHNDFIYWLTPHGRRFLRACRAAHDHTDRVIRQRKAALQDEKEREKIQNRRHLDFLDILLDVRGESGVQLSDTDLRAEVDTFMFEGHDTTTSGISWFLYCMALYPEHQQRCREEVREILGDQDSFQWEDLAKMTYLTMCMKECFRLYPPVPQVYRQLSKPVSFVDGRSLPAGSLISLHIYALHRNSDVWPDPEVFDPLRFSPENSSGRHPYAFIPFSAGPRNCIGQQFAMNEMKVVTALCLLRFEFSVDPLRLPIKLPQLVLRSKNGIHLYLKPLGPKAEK
T2 sequence (P00183 2-415): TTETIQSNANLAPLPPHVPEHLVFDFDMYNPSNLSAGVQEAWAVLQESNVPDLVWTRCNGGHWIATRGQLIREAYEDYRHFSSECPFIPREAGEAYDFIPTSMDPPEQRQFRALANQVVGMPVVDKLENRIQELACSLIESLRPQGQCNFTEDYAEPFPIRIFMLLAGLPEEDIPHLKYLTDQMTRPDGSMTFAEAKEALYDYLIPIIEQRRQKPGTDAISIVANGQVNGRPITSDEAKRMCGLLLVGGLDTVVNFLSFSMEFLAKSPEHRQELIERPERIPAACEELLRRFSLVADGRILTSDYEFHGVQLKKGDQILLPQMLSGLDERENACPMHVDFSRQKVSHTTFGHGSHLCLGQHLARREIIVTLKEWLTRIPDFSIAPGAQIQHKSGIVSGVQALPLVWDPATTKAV

Compound | Intermolecular KIE (CYP2E1; CYP2E1 (Table 15)) | Intramolecular KIE (CYP2E1; CYP2E1 (Table 15)) | δΔG^† (CYP2E1; CYP2E1, benzylic oxidation vs O-dealkylation) | Intermolecular KIE (CYP3A4; CYP3A4 (Table 15)) | Intramolecular KIE (CYP3A4; CYP3A4 (Table 15)) | δΔG^† (CYP3A4; CYP3A4, benzylic oxidation vs O-dealkylation) | Intermolecular KIE (CYP2B6 [1]; CYP2B6 (Table 15)) | Intramolecular KIE (CYP2B6 [1]; CYP2B6 (Table 15)) | δΔG^† (CYP2B6 [1]; CYP2B6, benzylic oxidation vs O-dealkylation) | Intramolecular KIE (kH/kD) (P450cam) | Experimental Ratio (CYP) | selectivity ratio at 20 min, […] (CYP1A2, CYP2B1, CYP2E1) | selectivity ratio at 20 min, […] (multiple CYP isoforms) | selectivity ratio at 20 min, […] (CYP2B6, CYP2C9, CYP4B1) | selectivity ratio (CYP2B6 [2]; [3]) | selectivity ratio (CYP2B6 [2]; [4]) | selectivity ratio (CYP4B1; [3]) | selectivity ratio (CYP4B1; [4]) | selectivity ratio (CYP1A2; [3]) | selectivity ratio (CYP1A2; [4])
COc1ccc(C)cc1 [p-Methylanisole, p-methylanisole] | 6.53 | 4.02 | 1.06 kcal/mol | 2.76 | 5.27 | 1.61 kcal/mol | 7.60 | 4.58 | 0.86 kcal/mol | 4.44 | – | – | – | – | – | – | – | – | – | –
COc1ccccc1C [o-Methylanisole, o-methylanisole] | – | – | – | – | – | – | – | – | – | – | 1.76 | 0.3 to 0.6 | 1.2 to 3 | 1.6 to 22 | 2 | 0.52 | 22 | 0.7 | 0.63 | 2.9
